Measurements from publication PMC12349723, “Computationally accelerated identification of P-glycoprotein inhibitors” (PLOS One, 2025).
Several values for one entry are separate records, joined by “and”; a condition that tells them apart may be missing. Equal entries are not always repeated.

test system: A2780-ADR cells; assay: MTT viability assay, reversal of MDR in P-gp overexpressing A2780-ADR cells; type: cell-based, human; conditions: 15 µM compound with or without 500 nM PTX, 48 h, MTT
Experimental: The chemotherapeutic sensitive DU145 human prostate cancer cells and the multidrug resistant sub-line, DU145-TXR, were generous gifts from Dr. Evan Keller (University of Michigan, Ann Arbor, MI). The MDR, P-gp overexpressing DU145-TXR cells were maintained under positive selection pressure by supplementing complete medium with 10 nM paclitaxel (Acros Organics, NJ). In addition to the aforementioned cell lines, the chemotherapeutic sensitive A2780 ovarian cancer cells (93112519, Sigma) and the multidrug resistant A2780-ADR (93112520, Sigma) were maintained in complete RPMI media consisting of RPMI-1640 with L-glutamine, 10% fetal bovine serum (FBS; Corning), 100 U/mL penicillin and 100 μg/mL streptomycin in a humidified incubator at 37 °C and 5% CO2. The MDR, P-gp overexpressing A2780-ADR cell line was maintained under positive selection pressure by supplementing complete medium with 100 nM doxorubicin (Fisher Scientific, NJ). The non-cancerous HFL1 (human lung fibroblast) cell line cell line was a generous gift from Dr. Robert Harrod (Southern Methodist University, Dallas, TX) and was maintained in complete F12K media consisting of F12K with 10% fetal bovine serum, 100 U/mL penicillin, and 100 µg/mL streptomycin (Gibco). Flasks and 96 well plates that were used with the non-cancerous line HFL1 were pre-treated with 0.1 mg/ml Collagen Type 1 (Gibco) and rinsed with PBS (Fisher).
Culture of the DU145, DU145-TXR, and HFL1 cell lines was performed as described in [8]. Culture of the A2780 and A2780-ADR cell lines was performed as described in [9]. MTT assays were performed as described in [8] with minor modifications. LC-MS/MS accumulation assays were performed as described in {Nanayakkara, 2018 #173} [9] with some modifications. […] The inhibitor concentration was lowered to 15 µM here, as the goal of the study was to identify compounds that were effective in reversing MDR at low concentrations, and to determine if the expanded virtual-assisted methods improved on our first-draft attempt. Compounds 56–98 were pre-screened using Resazurin cell viability assays: cells were incubated with 15 µM compound with or without 500 nM PTX for 48 hours, after which cell survival was assessed similar to [39]. Data represent the mean of two separate experiments, with n = 3 samples per experiment (n = 6 total) (S4 Table). The top performing compounds from this initial screen were re-tested with MTT viability assays against DU145-TXR cells, as described below.
MTT assays measure the reduction of yellow, water soluble 3-(4,5-dimethylthiazol-2-yl)-2,5-diphenyltetrazolium bromide (MTT) to blue, insoluble formazan crystals by cellular reductase processes in living cells. Cells were trypsinized from monolayers and seeded in complete medium in 96 well plates. Cancerous cell lines (DU145, DU145-TXR, A2780, A2780-ADR) were seeded at 3,000 cells per well in complete RPMI medium. The non-cancerous HFL1 line was seeded at 4,000 cells per well in complete F12K medium, in collagen-treated plates (Collagen Type 1, Gibco). Cells were incubated with experimental compounds for 48 hours at 37 °C and 5% CO2 in a humidified incubator. At 48 hours, MTT was added (20 µL/well of 5 mg/mL MTT in PBS) to each well. After incubation for 4 hours, the media was removed, and the formazan crystals were dissolved in 100 µL DMSO per well. Plates containing the semi-adherent A2780 or A2780-ADR lines were spun at 1400 rpm for 3 minutes prior to aspiration of media, and the addition of DMSO. Plates were shaken for 10 minutes at 500 rpm on an Orbital shaker (LabDoctor from MidSci, St Louis, MO). The absorbance was measured at 570 nm using a Bio-Tek Cytation 5 (Bio-Tek, Winooski, VT). The measured absorbance value was correlated with the number of metabolically active cells in that well, corrected for absorbance of media. […]

SMILES	Reversal of MDR in A2780-ADR cells
Cc1onc(-c2ccccc2)c1-c1nnc(Cn2cnc3ccccc3c2=O)o1 [Compound 111, Cc1onc(c1-c1nnc(Cn2cnc3ccccc3c2=O)o1)-c1ccccc1]	reversed MDR in A2780-ADR cells
Cc1onc(-c2ccccc2)c1-c1nnc(Cn2cnc3c(oc4ccccc43)c2=O)o1 [Compound 78, Cc1onc(c1-c1nnc(Cn2cnc3c4ccccc4oc3c2=O)o1)-c1ccccc1]	reversed MDR in A2780-ADR cells
O=C(c1nc(-c2ccccn2)no1)N1CCN(c2nsc3ccccc23)CC1 [Compound 124, O=C(N1CCN(CC1)c1nsc2ccccc12)c1nc(no1)-c1ccccn1]	reversed MDR in A2780-ADR cells

same assay, conditions: A2780-ADR cells, 1 µM compound + 500 nM PTX, mean of 12 samples

SMILES	Mean % Survival
COc1ccc2c3c([nH]c2c1)[C@H](CC(C)C)N1C(=O)[C@H](CCC(=O)OC(C)(C)C)NC(=O)[C@@H]1C3 [Ko143, reference compound]	77.3%
COc1cc2c(cc1OC)CN(CCc1ccc(NC(=O)c3cc(OC)c(OC)cc3NC(=O)c3cnc4ccccc4c3)cc1)CC2 [Tariquidar, reference compound]	55.3%

same assay, conditions: A2780-ADR cells, 1 µM compound + 500 nM PTX, single samples (trials 1-3, samples 1-4)

SMILES	% Survival (individual sample)
COc1ccc2c3c([nH]c2c1)[C@H](CC(C)C)N1C(=O)[C@H](CCC(=O)OC(C)(C)C)NC(=O)[C@@H]1C3 [Ko143, reference compound]	70% and 74% and 82% and 83% and 73% and 76% and 85% and 71% and 75% and 84%

same assay, conditions: A2780-ADR cells, 1 µM compound + 500 nM PTX, single samples (trials 1-3, samples 1-4); listed as TQR

SMILES	% Survival (individual sample)
COc1cc2c(cc1OC)CN(CCc1ccc(NC(=O)c3cc(OC)c(OC)cc3NC(=O)c3cnc4ccccc4c3)cc1)CC2 [Tariquidar, reference compound]	58% and 59%

same assay, conditions: A2780-ADR cells, 1 µM compound alone, mean of 12 samples

SMILES	Mean % Survival
COc1ccc2c3c([nH]c2c1)[C@H](CC(C)C)N1C(=O)[C@H](CCC(=O)OC(C)(C)C)NC(=O)[C@@H]1C3 [Ko143, reference compound]	102.8%

same assay, conditions: A2780-ADR cells, 1 µM compound alone, single samples (trials 1-3, samples 1-4)

SMILES	% Survival (individual sample)
COc1ccc2c3c([nH]c2c1)[C@H](CC(C)C)N1C(=O)[C@H](CCC(=O)OC(C)(C)C)NC(=O)[C@@H]1C3 [Ko143, reference compound]	103% and 101% and 106% and 119% and 127% and 112% and 96% and 91% and 87% and 92% and 99%

same assay, conditions: A2780-ADR cells, 15 µM compound + 500 nM PTX, mean of 12 samples

SMILES	Mean % Survival
Cc1onc(-c2ccccc2)c1-c1nnc(Cn2cnc3ccccc3c2=O)o1 [Compound 111, Cc1onc(c1-c1nnc(Cn2cnc3ccccc3c2=O)o1)-c1ccccc1]	47.6%
NS(=O)(=O)c1cccc(NC(=O)CSc2nnnn2C2CC2)c1 [Compound 89, NS(=O)(=O)c1cccc(NC(=O)CSc2nnnn2C2CC2)c1]	74.6%
Cc1onc(-c2ccccc2)c1-c1nnc(Cn2cnc3c(oc4ccccc43)c2=O)o1 [Compound 78, Cc1onc(c1-c1nnc(Cn2cnc3c4ccccc4oc3c2=O)o1)-c1ccccc1]	41.5%
Cn1cnnc1SCc1c(C(=O)O)nnn1-c1nonc1N [Compound 59, Cn1cnnc1SCc1c(nnn1-c1nonc1N)C(O)=O]	83.9%
O=C(c1nc(-c2ccccn2)no1)N1CCN(c2nsc3ccccc23)CC1 [Compound 124, O=C(N1CCN(CC1)c1nsc2ccccc12)c1nc(no1)-c1ccccn1]	52.5%

same assay, conditions: A2780-ADR cells, 15 µM compound + 500 nM PTX, single samples (trials 1-3, samples 1-4)

SMILES	% Survival (individual sample)
Cc1onc(-c2ccccc2)c1-c1nnc(Cn2cnc3ccccc3c2=O)o1 [Compound 111, Cc1onc(c1-c1nnc(Cn2cnc3ccccc3c2=O)o1)-c1ccccc1]	52% and 38%
NS(=O)(=O)c1cccc(NC(=O)CSc2nnnn2C2CC2)c1 [Compound 89, NS(=O)(=O)c1cccc(NC(=O)CSc2nnnn2C2CC2)c1]	54%
Cc1onc(-c2ccccc2)c1-c1nnc(Cn2cnc3c(oc4ccccc43)c2=O)o1 [Compound 78, Cc1onc(c1-c1nnc(Cn2cnc3c4ccccc4oc3c2=O)o1)-c1ccccc1]	48% and 26%
O=C(c1nc(-c2ccccn2)no1)N1CCN(c2nsc3ccccc23)CC1 [Compound 124, O=C(N1CCN(CC1)c1nsc2ccccc12)c1nc(no1)-c1ccccn1]	58%

same assay, conditions: A2780-ADR cells, 15 µM compound alone, single samples (trials 1-3, samples 1-4)

SMILES	% Survival (individual sample)
Cc1onc(-c2ccccc2)c1-c1nnc(Cn2cnc3ccccc3c2=O)o1 [Compound 111, Cc1onc(c1-c1nnc(Cn2cnc3ccccc3c2=O)o1)-c1ccccc1]	95% and 98%
NS(=O)(=O)c1cccc(NC(=O)CSc2nnnn2C2CC2)c1 [Compound 89, NS(=O)(=O)c1cccc(NC(=O)CSc2nnnn2C2CC2)c1]	90% and 86%
Cc1onc(-c2ccccc2)c1-c1nnc(Cn2cnc3c(oc4ccccc43)c2=O)o1 [Compound 78, Cc1onc(c1-c1nnc(Cn2cnc3c4ccccc4oc3c2=O)o1)-c1ccccc1]	81% and 88%
Cn1cnnc1SCc1c(C(=O)O)nnn1-c1nonc1N [Compound 59, Cn1cnnc1SCc1c(nnn1-c1nonc1N)C(O)=O]	98% and 96%
O=C(c1nc(-c2ccccn2)no1)N1CCN(c2nsc3ccccc23)CC1 [Compound 124, O=C(N1CCN(CC1)c1nsc2ccccc12)c1nc(no1)-c1ccccn1]	94% and 91%

same assay, conditions: Homo sapiens, A2780 ADR, A2780-ADR cells, 1 µM compound alone, mean of 12 samples; read-out: Mean % Survival

SMILES	viability at 1 µM
COc1cc2c(cc1OC)CN(CCc1ccc(NC(=O)c3cc(OC)c(OC)cc3NC(=O)c3cnc4ccccc4c3)cc1)CC2 [Tariquidar, reference compound]	91%

same assay, conditions: Homo sapiens, A2780 ADR, A2780-ADR cells, 15 µM compound alone, mean of 12 samples; read-out: Mean % Survival

SMILES	viability at 15 µM
Cc1onc(-c2ccccc2)c1-c1nnc(Cn2cnc3ccccc3c2=O)o1 [Compound 111, Cc1onc(c1-c1nnc(Cn2cnc3ccccc3c2=O)o1)-c1ccccc1]	97.3%
NS(=O)(=O)c1cccc(NC(=O)CSc2nnnn2C2CC2)c1 [Compound 89, NS(=O)(=O)c1cccc(NC(=O)CSc2nnnn2C2CC2)c1]	89.9%
Cc1onc(-c2ccccc2)c1-c1nnc(Cn2cnc3c(oc4ccccc43)c2=O)o1 [Compound 78, Cc1onc(c1-c1nnc(Cn2cnc3c4ccccc4oc3c2=O)o1)-c1ccccc1]	82.7%
Cn1cnnc1SCc1c(C(=O)O)nnn1-c1nonc1N [Compound 59, Cn1cnnc1SCc1c(nnn1-c1nonc1N)C(O)=O]	93.1%
O=C(c1nc(-c2ccccn2)no1)N1CCN(c2nsc3ccccc23)CC1 [Compound 124, O=C(N1CCN(CC1)c1nsc2ccccc12)c1nc(no1)-c1ccccn1]	92.5%

same assay, conditions: Homo sapiens, A2780 ADR, A2780-ADR cells, 15 µM compound alone, single samples (trials 1-3, samples 1-4); read-out: % Survival (individual sample)

SMILES	viability at 15 µM
NS(=O)(=O)c1cccc(NC(=O)CSc2nnnn2C2CC2)c1 [Compound 89, NS(=O)(=O)c1cccc(NC(=O)CSc2nnnn2C2CC2)c1]	91%
Cn1cnnc1SCc1c(C(=O)O)nnn1-c1nonc1N [Compound 59, Cn1cnnc1SCc1c(nnn1-c1nonc1N)C(O)=O]	95%
